Data taken from article PMC7824081, “Inhibition of DOT1L by Half-Selenopsammaplin A Analogs Suppresses Tumor Growth and EMT-Mediated Metastasis in Triple-Negative Breast Cancer” (Pharmaceuticals, 2020).
pIC50: −log10 of the molar value.

What was measured:
DOT1L = target: T1, DOT1L (Homo sapiens, UniProt Q8TEK3); assay: DOT1L enzyme activity assay (cell-free); format: biochemical; conditions: 500 nM, 2 h, DOT1L 500 ng/well
T1 construct: purchased BPS Bioscience 52202
Experimental: DOT1L enzyme activity was measured using 5 μM S-adenosyl methionine (SAM) as the methyl group donor, synthesized DOT1L substrate as the substrate, and 25 ng/μL DOT1L enzymes from BPS Bioscience (Cat. No. 52202; San Diego, CA, USA) according to the manufacturer’s instructions.

MDA-MB-231 TNBC cells = assay: SRB cell proliferation assay, MDA-MB-231; format: cell-based, human; conditions: for pIC50: 72 h, SRB assay; for Therapeutic Index: ratio of IC50 values between MCF10A and MDA-MB-231 cells
Experimental: (§1) Human breast epithelial cell line (MCF10A) and human TNBC cell lines (MDA-MB-468, MDA-MB-231, Hs578T, and HCC38 cells) were provided by the American Type Culture Collection (Manassas, VA, USA). MCF10A cells were cultured in Dulbecco’s Modified Eagle’s Medium/Nutrient Mixture F-12 containing 5% donor horse serum, 100 ng/mL cholera toxin, 10 µg/mL human insulin, 20 ng/mL epidermal growth factor, 0.5 µg/mL hydrocortisone, and penicillin-streptomycin (sodium penicillin G: 100 units/mL; streptomycin: 100 μg/mL). The TNBC cells were cultured in medium [Dulbecco’s Modified Eagle’s Medium for MDA-MB-468, MDA-MB-231, and Hs578T cells; Roswell Park Memorial Institute 1640 medium for HCC38 cells] supplemented with penicillin-streptomycin and 10% fetal bovine serum at 37 °C in a humidified incubator with 5% carbon dioxide. MCF10A cells were cultured in DMEM/F12 containing 5% donor horse serum, 100 ng/mL cholera toxin, 10 µg/mL human insulin, 20 ng/mL epidermal growth factor, 0.5 µg/mL hydrocortisone and penicillin-streptomycin. All reagents used for cell culture, including culture medium, fetal bovine serum, trypsin-EDTA solution (1×), and penicillin-streptomycin solution (100×), were purchased from Gibco (Grand Island, NE, USA). Laemmli sample buffer (2×) and 2-mercaptoethanol were purchased from Bio-Rad Laboratories, Inc. (Hercules, CA, USA). EPZ-5676 was purchased from Cayman Chemical (Ann Arbor, MI, USA). Dimethyl sulfoxide (DMSO), bicinchoninic acid, copper (II) sulfate solution, bovine serum albumin (BSA), trichloroacetic acid, sulforhodamine B (SRB), and paclitaxel were purchased from Sigma–Aldrich (St. Louis, MO, USA).
(§2) Cell proliferation was evaluated using the SRB assay. Briefly, cells were seeded in 96-well plates and incubated for 30 min (for 0-day controls) or treated with test compounds for the times indicated. After incubation, the cells were fixed, dried, and stained with 0.4% (w/v) SRB in 1% (v/v) acetic acid solution. Unbound dye was removed by washing, and stained cells were dissolved in 10 mM Tris (pH 10.0). Cell proliferation was then determined by measuring the absorbance at 515 nm.

[1] = test system: MCF10A normal breast epithelial cells; assay: SRB cell proliferation assay, MCF10A; format: cell-based, human; conditions: 72 h
Experimental: as §1, §2

[2] = Molecular stability in dichloromethane (TLC analysis); format: physicochemical; conditions: room temperature, 48 h
Experimental: Figure S1. Thin layer chromatography analysis
Se-S bond analog (Figure 2, compound 9) was dissolved in dichloromethane at room
temperature. After 48 h, thin layer chromatography (TLC) analysis of the compound
9 was performed. (P : Compound 9, C : Co-spot, S : Diphenyl disulfide, SPA :
Compound 5b, eluent: [Hexane:EtOAc = 1:1] ).
(1 picture or pasted object on this page, not shown here)

[3] = test system: MDA-MB-231/Luc cells-implanted orthotopic mouse model; assay: MDA-MB-231/Luc-implanted orthotopic mouse tumor model; format: in vivo; conditions: 30 mg/kg i.p., three times per week for 38 days
Experimental: All animal experiments were conducted following the guidelines approved by the Seoul National University Institutional Animal Care and Use Committee (IACUC; permission number: SNU-180430-4-1). Female nude mice (BALB/c-nu), 4 weeks old, were purchased from Central Laboratory Animal, Inc. (Seoul, Korea) and housed under pathogen-free conditions with a 12 h light-dark schedule. Luciferase expressing MDA-MB-231 cells were inoculated orthotopically into the fourth fat pad of mice (1 × 10^7 cells in 100 μL of 50:50 PBS/Matrigel) using a 29-gauge needle. Two weeks after implantation, mice were randomized into vehicle control and treatment groups of six animals per group and were administered with vehicle (EtOH/Cremophor/Normal saline = 5:5:90), 9l (10 or 30 mg/kg body weight), EPZ-5676 (30 mg/kg body weight), or paclitaxel (5 mg/kg body weight, Sigma-Aldrich) as a positive reference control. Compounds were administered intraperitoneally three times per week for 38 days. An additional week later, anesthetized mice were positioned in IVIS (PerkinElmer, Waltham, MA, USA) and were imaged 15 min after injection of 150 mg/kg D-luciferin (Gold Biotechnology, St. Louis, MO, USA) resuspended in DPBS (w/o calcium or magnesium). Mice were euthanized and primary tumors and lungs were excised, weighed, and frozen for further biochemical analysis. The length (L), width (W), and height (H) of the tumors were also measured using a digital slide caliper (Mitutoyo, Kawasaki, Japan) once a week, and tumor volumes (mm^3) were estimated by the formula LWH/2. Toxicity was evaluated based on body weight loss.
A portion of the frozen tumors excised from nude mice on the termination day of the experiment was homogenized using a hand-held homogenizer in complete lysis buffer (Active Motif, Carlsbad, CA, USA). Aliquots were stored at −80 °C, and the levels of protein expression in the tumor lysates were determined. The protein concentrations in the tumor lysates were measured using the Bradford assay.

T1 sequence (Q8TEK3 whole entry): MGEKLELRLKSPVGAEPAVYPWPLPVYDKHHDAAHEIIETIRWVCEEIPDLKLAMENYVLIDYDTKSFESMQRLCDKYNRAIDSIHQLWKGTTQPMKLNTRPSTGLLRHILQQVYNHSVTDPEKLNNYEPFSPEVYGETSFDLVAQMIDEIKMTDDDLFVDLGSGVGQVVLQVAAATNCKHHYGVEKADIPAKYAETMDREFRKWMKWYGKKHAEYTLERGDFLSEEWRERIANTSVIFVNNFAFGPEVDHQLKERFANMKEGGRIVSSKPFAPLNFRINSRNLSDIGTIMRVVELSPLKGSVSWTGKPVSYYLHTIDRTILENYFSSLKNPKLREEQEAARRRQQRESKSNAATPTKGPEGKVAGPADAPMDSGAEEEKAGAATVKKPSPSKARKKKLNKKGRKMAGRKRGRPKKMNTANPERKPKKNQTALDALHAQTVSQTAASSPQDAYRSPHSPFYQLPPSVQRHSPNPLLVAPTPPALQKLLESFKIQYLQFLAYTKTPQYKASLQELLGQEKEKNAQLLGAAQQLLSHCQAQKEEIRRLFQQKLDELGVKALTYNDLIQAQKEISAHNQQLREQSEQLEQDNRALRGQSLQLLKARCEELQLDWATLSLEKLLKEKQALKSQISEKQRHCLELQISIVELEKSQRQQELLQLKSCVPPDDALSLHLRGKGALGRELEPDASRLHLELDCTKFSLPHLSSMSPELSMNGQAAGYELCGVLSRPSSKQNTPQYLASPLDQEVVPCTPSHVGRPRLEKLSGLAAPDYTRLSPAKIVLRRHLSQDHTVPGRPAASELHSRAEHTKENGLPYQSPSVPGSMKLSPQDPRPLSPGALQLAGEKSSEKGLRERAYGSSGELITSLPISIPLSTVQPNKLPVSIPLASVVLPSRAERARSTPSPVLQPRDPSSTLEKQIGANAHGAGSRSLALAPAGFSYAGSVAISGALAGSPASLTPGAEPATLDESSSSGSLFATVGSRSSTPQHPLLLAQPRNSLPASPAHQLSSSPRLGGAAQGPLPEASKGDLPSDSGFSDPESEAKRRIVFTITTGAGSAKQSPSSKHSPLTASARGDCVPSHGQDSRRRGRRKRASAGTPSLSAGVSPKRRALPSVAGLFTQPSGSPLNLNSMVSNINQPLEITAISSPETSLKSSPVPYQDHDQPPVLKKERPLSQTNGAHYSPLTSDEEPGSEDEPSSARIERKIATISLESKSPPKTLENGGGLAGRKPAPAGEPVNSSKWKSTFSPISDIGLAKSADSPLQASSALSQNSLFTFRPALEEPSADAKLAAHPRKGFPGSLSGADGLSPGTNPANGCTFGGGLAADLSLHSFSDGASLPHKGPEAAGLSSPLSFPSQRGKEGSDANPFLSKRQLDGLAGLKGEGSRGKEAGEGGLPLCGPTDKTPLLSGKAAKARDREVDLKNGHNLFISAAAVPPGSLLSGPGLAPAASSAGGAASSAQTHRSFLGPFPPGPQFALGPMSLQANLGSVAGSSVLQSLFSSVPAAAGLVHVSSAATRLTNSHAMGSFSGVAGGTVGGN

| SMILES | pIC50 (MDA-MB-231 TNBC cells; Homo sapiens, MDA-MB-231) | Therapeutic Index (MDA-MB-231 TNBC cells) | pIC50 ([1]; Homo sapiens, MCF-10A) | other results |
| --- | --- | --- | --- | --- |
| O=C(NCC[Se]Sc1ccccc1)/C(Cc1ccc(O)c(Br)c1)=N/O [9a, (E)-3-(3-Bromo-4-hydroxyphenyl)-2-(hydroxyimino)-N-(2-((phenylthio)selanyl)ethyl)propanamide] | 6.68 | 82.10 | 4.76 | Inhibition of DOT1L enzyme activity (DOT1L): significant inhibitory effects |
| CC(=O)O[C@H]1C(=O)[C@@]2(C)[C@H]([C@H](OC(=O)c3ccccc3)[C@]3(O)C[C@H](OC(=O)[C@H](O)[C@@H](NC(=O)c4ccccc4)c4ccccc4)C(C)=C1C3(C)C)[C@]1(OC(C)=O)CO[C@@H]1C[C@@H]2O [Paclitaxel, reference compound] | 8.00 | 19.80 | 6.70 | – |
| CC(C)(C)c1ccc(CC(=NO)C(=O)NCCSSc2ccccc2)cc1 [PsA-3091, reference compound] | – | 68.99 | – | pIC50 (MDA-MB-231 TNBC cells): 5.70; pIC50 [1]: 3.86 |
| O=C(NCC[Se]Sc1ccccc1)/C(Cc1ccc(Cl)c(Cl)c1)=N/O [9g, (E)-3-(3,4-Dichlorophenyl)-2-(hydroxyimino)-N-(2-((phenylthio)selanyl)ethyl)propanamide] | 6.48 | 68.67 | 4.64 | – |
| O=C(NCC[Se]Sc1ccccc1)/C(Cc1ccc(O)c(F)c1)=N/O [9n, (E)-3-(3-Fluoro-4-hydroxyphenyl)-2-(hydroxyimino)-N-(2-((phenylthio)selanyl)ethyl)propanamide] | 6.64 | 80.48 | 4.73 | – |
| O=C(NCC[Se]Sc1ccccc1)/C(Cc1ccc(OCc2ccccc2)cc1)=N/O [9j, (E)-3-(4-(Benzyloxy)phenyl)-2-(hydroxyimino)-N-(2-((phenylthio)selanyl)ethyl)propanamide] | 6.74 | 108.22 | 4.71 | – |
| O=C(NCC[Se]Sc1ccccc1)/C(Cc1ccc([N+](=O)[O-])cc1)=N/O [9k, (E)-2-(Hydroxyimino)-3-(4-nitrophenyl)-N-(2-((phenylthio)selanyl)ethyl)propanamide] | 6.72 | 95.53 | 4.74 | – |
| O=C(NCCSSCCNC(=O)/C(Cc1ccc(O)c(Br)c1)=N/O)/C(Cc1ccc(O)c(Br)c1)=N/O [Psammaplin A (PsA), Psammaplin A] | 5.55 | 11.60 | 4.49 | Inhibition of DOT1L enzyme activity (DOT1L): negligible DOT1L inhibition |
| O=C(NCC[Se]Sc1ccccc1)/C(Cc1ccc2ccccc2c1)=N/O [9c, (E)-2-(Hydroxyimino)-3-(naphthalen-2-yl)-N-(2-((phenylthio)selanyl)ethyl)propanamide] | 6.34 | 61.30 | 4.55 | – |
| CCOc1ccc(C/C(=N\O)C(=O)NCC[Se]Sc2ccccc2)cc1 [9i, (E)-3-(4-Ethoxyphenyl)-2-(hydroxyimino)-N-(2-((phenylthio)selanyl)ethyl)propanamide] | 6.77 | 123.65 | 4.68 | – |
| O=C(NCC[Se]Sc1ccccc1)/C(Cc1ccccc1)=N/O [compound 9] | – | – | – | molecular stability [2]: stable |
| O=C(NCC[Se]Sc1ccccc1)/C(Cc1ccc(F)cc1)=N/O [9d, (E)-3-(4-Fluorophenyl)-2-(hydroxyimino)-N-(2-((phenylthio)selanyl)ethyl)propanamide] | 6.41 | 66.77 | 4.58 | – |
| CC(C)N(C[C@H]1O[C@@H](n2cnc3c(N)ncnc32)[C@H](O)[C@@H]1O)[C@H]1C[C@@H](CCc2nc3cc(C(C)(C)C)ccc3[nH]2)C1 [EPZ-5676, reference compound] | < 4.30 | – | < 4.30 | inhibition of proliferation of TNBC cells (MDA-MB-231 TNBC cells; at 50 μM): not able to inhibit the proliferation; effect on tumor growth [3]: did not affect tumor growth |
| O=C(NCC[Se]Sc1ccccc1)/C(Cc1ccccc1)=N/O [9b, (E)-2-(Hydroxyimino)-3-phenyl-N-(2-((phenylthio)selanyl)ethyl)propanamide] | 6.60 | 86.08 | 4.67 | Inhibition of DOT1L enzyme activity (DOT1L): significant inhibitory effects |
| O=C(NCC[Se]Sc1ccccc1)/C(Cc1ccc(F)c(F)c1)=N/O [9e, (E)-3-(3,4-Difluorophenyl)-2-(hydroxyimino)-N-(2-((phenylthio)selanyl)ethyl)propanamide] | 6.37 | 54.23 | 4.63 | – |
| O=C(NCC[Se]Sc1ccccc1)/C(Cc1ccc(Cl)cc1)=N/O [9f, (E)-3-(4-Chlorophenyl)-2-(hydroxyimino)-N-(2-((phenylthio)selanyl)ethyl)propanamide] | 6.33 | 57.60 | 4.57 | – |
| O=C(NCC[Se]Sc1ccccc1)/C(Cc1ccc(O)c(Cl)c1)=N/O [9m, (E)-3-(3-Chloro-4-hydroxyphenyl)-2-(hydroxyimino)-N-(2-((phenylthio)selanyl)ethyl)propanamide] | 6.60 | 68.08 | 4.77 | – |
| O=C(NCC[Se]Sc1ccccc1)/C(Cc1ccc(Br)cc1)=N/O [9h, (E)-3-(4-Bromophenyl)-2-(hydroxyimino)-N-(2-((phenylthio)selanyl)ethyl)propanamide] | 6.40 | 72.85 | 4.54 | – |
